Assay results published in paper PMC3740347 (Journal of the American Chemical Society, 2013).
Where two headings read alike, the source gives them in different places.

Columns and labels:
GST-VH1 [1] = molecular target: T1, GST-VH1 (Vaccinia virus, UniProt P07239)
GST-VH1 [2] = molecular target: T1, GST-VH1; conditions: pH 7.4

HQYFMpTEYVAT gave a kcat/KM (GST-VH1 [1]) of 490 M⁻¹ s⁻¹.
Substance HQYFMpTEpYVAT has a kcat/KM (GST-VH1 [1]) of 3200 M⁻¹ s⁻¹.
YDEDFpYDYEF [Peptide 26] gave a Km (GST-VH1 [2]) of 11 µM and a kcat (GST-VH1 [2]) of 2.6 s⁻¹.
With YNAFAIpTAA [Peptide 2] the “fold decrease of VH1 catalytic activity relative to parent peptide” value (GST-VH1 [1]) was ~ 2 fold, the Km (GST-VH1 [1]; pH 7.4) was greater than 2000 µM and the kcat/KM (GST-VH1 [1]; pH 7.4) was 93 ± 3 M⁻¹ s⁻¹.
